Results as given in patent US20080275134A1, “Methods for Treatment of Retinal Degenerative Disease” (University of Washington, priority 2005, published 2008).
“Also recorded” adds a separate entry of the source.

What was measured:
CYP26A1 = target: T1, CYP26A1 (Homo sapiens, UniProt O43174); experiment: oxidation in HEK-293 cells transfected with CYP26A1 cDNA; assay type: in vitro ADME
T1 construct: expressed in transfected cells; host or cells: HEK-293
T1 sequence (O43174 1-497): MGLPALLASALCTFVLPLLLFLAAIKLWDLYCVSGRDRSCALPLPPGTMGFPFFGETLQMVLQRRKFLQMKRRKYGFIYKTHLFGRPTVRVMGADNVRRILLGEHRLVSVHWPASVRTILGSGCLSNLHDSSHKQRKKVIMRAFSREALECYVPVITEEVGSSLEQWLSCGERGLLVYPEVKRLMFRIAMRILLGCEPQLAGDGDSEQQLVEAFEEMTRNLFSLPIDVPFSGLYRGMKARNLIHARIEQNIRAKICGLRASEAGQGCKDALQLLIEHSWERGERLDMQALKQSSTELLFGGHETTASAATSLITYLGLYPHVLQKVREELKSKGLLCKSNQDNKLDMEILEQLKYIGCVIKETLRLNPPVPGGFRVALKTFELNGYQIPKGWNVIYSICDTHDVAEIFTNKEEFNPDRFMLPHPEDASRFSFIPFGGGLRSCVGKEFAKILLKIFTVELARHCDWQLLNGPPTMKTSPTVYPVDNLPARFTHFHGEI
Text: Next, the RA oxidation pathway was investigated. […] In addition to secretion, Ret-NH2 might be degraded first by deamination to all-trans-retinol/retinal, which was seen to increase in Ret-NH2 treated cells. […] These observations explain the long-lasting effect of RetNH2, as the amide is stored and hydrolyzed back to the free amine.

CRALBP = CRALBP (Homo sapiens, UniProt P12271); experiment: analysis of retinoids bound to CRALBP isolated from the reaction mixture; assay type: binding
RPE65 = target: T2, RPE65 (Bos taurus, UniProt Q28175); experiment: gel filtration of RPE proteins with anti-RPE65 immunoblot; assay type: binding, bovine; settings: RPE65 found in fractions 23-34
T2 construct: RPE microsomes were solubilized with 10 mM DHPC; from tissue; host or cells: bovine RPE microsomes, DHPC extract
Protocol: The specificity of Ret-NH2 was further tested by biochemical assays. […] When the RPE microsomes were solubilized with DHPC, the isomerase activity decreased only slightly. Then [^3H]-Ret-NH2 was added to the RPE extract and loaded on a gel filtration column. Proteins were fractionated and eluted between fractions 18 and 60 (FIG. 3A), while the radioactivity was eluted in fractions 36-38. RPE65 was identified by immunoblotting in fractions 23-34 (FIG. 3B). The most abundant proteins in this fraction were identified by mass spectrometry and include glucose phosphate isomerase, D-glyceraldehyde-3-phosphate dehydrogenase, phosphoglycerate mutase, triose phosphate isomerase, enolase, annexin V, calbindin 2, and LRAT. Identification of less abundant proteins is in progress.
RPE microsomes were solubilized with 10 mM DHPC, incubated with 11,12-di[^3H]-all-trans-Ret-NH2 (1 μM), and loaded on a Superdex 200 column equilibrated with Tris/HCl buffer, pH 7.5, containing 4 mM DHPC. Proteins were eluted with a constant flow rate of 0.4 ml/min. The protein and radioactivity levels of 0.4 ml fractions were examined by SDS-PAGE and scintillation counting (A), and immunoblot with anti-RPE65 and anti-LRAT antibodies (B). The star indicates the fraction associated with maximum radioactivity.

[1] = observation of mice for systemic toxicity after oral gavage; assay type: in vivo; settings: single doses 0.5 to 100 mg/kg
[2] = tested on: visual function (a-wave and b-wave); experiment: single flash ERG responses of treated mice; assay type: in vivo, mouse
Protocol: A. Chromatographic separation of nonpolar retinoids from WT mouse eyes. Mice were gavaged with all-trans-Ret-NH2 24 hours prior to bleaching for 20 min at 150 cd·m^−2 W in the Ganzfeld chamber. Regeneration of 11-cis-retinal was allowed for 24 hours in the dark, and retinoids were extracted from the eye and separated by normal phase HPLC as described in Materials and Methods. The peaks were identified based on elution time and absorption spectra correspond to the following retinoids: 1, all-trans-retinyl esters; 2,2′, syn- and anti-11-cis-retinal oximes; 3, syn-all-trans-retinal oxime; 4,4′, syn- and anti-9-cis-retinal oximes; 5, all-trans-retinol. B. Changes of 11-cis-retinal oxime levels at increasing doses of all-trans-Ret-NH2 during 5 hours or 24 hours of dark adaptation. Square indicates the level of 11-cis-retinal oximes that was present in mice gavaged with vegetable oil without retinoids just after bleaching, and arrow indicates the increase of visual chromophore during 5 hours of dark adaptation. Triangles correspond to the level of 11-cis-retinal found in the mice gavaged with 50 mg/kg of 13-cis-RA. C and D. Single flash ERG responses of increasing intensity for all-trans-Ret-NH2 treated mice and control mice. Serial responses to increasing flash stimuli were obtained for all-trans-Ret-NH2 treated and control mice for selected intensities (C) and plotted as a function of a-wave and b-wave versus varying light intensities under dark-adapted conditions (D) before bleach and at 5 hours and 24 hours after bleach. The dark-adapted mice were bleached with intense constant illumination (150 cd·m^−2) for 20 min. […] SE bars are shown. […]
The conclusions derived from the analysis of retinoids of Ret-NH2-treated mice were supported by ERG analysis of visual functions. […] Next, the impact of all-trans-Ret-NH2 administration on the visual physiology of wild-type mice was evaluated in vivo with ERGs. […]

Sequence of CRALBP (P12271 whole entry, species assumed): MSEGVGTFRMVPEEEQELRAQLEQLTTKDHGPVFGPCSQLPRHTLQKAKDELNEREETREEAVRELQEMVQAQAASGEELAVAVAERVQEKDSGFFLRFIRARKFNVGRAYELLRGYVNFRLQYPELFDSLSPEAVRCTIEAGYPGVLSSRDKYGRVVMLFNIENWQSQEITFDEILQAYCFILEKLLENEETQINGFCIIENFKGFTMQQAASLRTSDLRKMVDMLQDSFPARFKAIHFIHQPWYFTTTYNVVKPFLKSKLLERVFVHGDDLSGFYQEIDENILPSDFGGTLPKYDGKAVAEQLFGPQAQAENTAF
T2 sequence (Q28175 whole entry): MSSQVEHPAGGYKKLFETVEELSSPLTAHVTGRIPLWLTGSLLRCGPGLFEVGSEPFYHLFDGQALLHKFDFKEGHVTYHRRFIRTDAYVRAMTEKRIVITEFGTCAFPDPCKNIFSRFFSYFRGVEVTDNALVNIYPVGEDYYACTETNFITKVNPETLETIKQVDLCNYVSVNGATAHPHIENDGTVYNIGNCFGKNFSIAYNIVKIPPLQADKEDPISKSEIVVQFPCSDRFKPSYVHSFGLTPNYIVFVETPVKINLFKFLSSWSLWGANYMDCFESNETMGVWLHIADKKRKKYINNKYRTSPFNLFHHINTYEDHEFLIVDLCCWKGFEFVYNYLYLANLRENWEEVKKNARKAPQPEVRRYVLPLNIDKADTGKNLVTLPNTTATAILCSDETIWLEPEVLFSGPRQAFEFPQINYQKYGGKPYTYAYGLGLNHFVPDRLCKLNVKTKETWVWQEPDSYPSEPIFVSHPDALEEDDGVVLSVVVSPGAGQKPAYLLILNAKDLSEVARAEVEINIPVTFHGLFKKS

Row | Compound | oxidation by CYP26A1 (CYP26A1) | binding to CRALBP (CRALBP) | binding to RPE65 (RPE65) | symptoms of systemic toxicity such as weight loss or gastrointestinal disorder [1] | dark-adapted ERG a- and b-wave responses after bleach ([2]; 50 mg/kg single dose, 20 min bleach, 5 and 24 hours after, P<0.0001 vs control) | light-adapted (photopic) ERG responses, cone function ([2]; 50 mg/kg single dose, before and 5 and 24 hours after bleach, p>0.1 vs control) | dark-adapted ERG before bleach ([2]; 24 hours after 50 mg/kg gavage)
1 | CC1=C(/C=C/C(C)=C/C=C/C(C)=C/CN)C(C)(C)CCC1 [Ret-NH2, Retinylamine] | no evidence of the presence of hydroxy- or oxo-Ret-NH2 | does not bind | does not bind | – | – | – | –
2 | CC1=C(/C=C/C(C)=C/C=C/C(C)=C/CN)C(C)(C)CCC1 [all-trans-Ret-NH2, all-trans-retinylamine] | – | – | – | did not exhibit symptoms of systemic toxicity | significantly attenuated | attenuated weakly; also recorded: not affected by all-trans-Ret-NH2 to the same extent as rod function | normal waveforms and responses
